From patent publication US20250235496A1, “USE OF BELLIDIFOLIN (BEL) AND/OR BEL-CONTAINING EXTRACT IN PREPARATION OF ANTIDEPRESSANT PRODUCT” (priority 2024, published 2025)

Test: Mass spectrometry imaging of mouse brain
Assay type: in vivo, mice
Conditions: 10, 20 and 40 mg/kg, 21 d

Q: For `COc1cc(O)c2c(=O)c3c(O)ccc(O)c3oc2c1` [BEL, bellidifolin], which “BEL signal in brain (mass spectrometry imaging), passage of BBB” value is on record?
A: BEL signals were detected
